Measured values as given in US20240285627A1, “DRUG COMBINATION OF FAK INHIBITOR AND IMMUNOGENIC CELL DEATH INDUCER AND USE THEREOF” (INXMED (NANJING) CO., LTD., priority 2022, published 2024).
Several values for one entry are separate records, joined by “and”; a condition that tells them apart may be missing. Identical values can stand only once.

Assays:
[1] = Weight change, survival and clinical status in the CT26 allograft model (Example 9); type: in vivo
Procedure: The health status and death of animals was monitored every day. Routine examination included observing the effects of tumor growth and drug treatment on the daily behavior of animals, such as behavioral activities, food and water intake (visual observation only), body weight change, appearance signs or other abnormal conditions. Based on the number of animals in each group, the death number and side effects of animals in the group were recorded.
The assay was carried out according to the administration scheme. During the assay, animal activities such as eating and drinking were observed daily, and animal weight was recorded 2˜3 times a week. […] The body weight of the three-drug combined group of MRTX1133+IN10018+TIGIT (5+25+3 mg/kg) group changed from 19.5 g on the day of group administration (Day 0) to 21.2 g on the 16th day, and the change rate of body weight was […].

[2] = Body weight / tolerability of KPL tumor-bearing mice (Example 12); type: in vivo; conditions: KPL tumor-bearing C57BL/6 mice
Procedure: All the procedures related to animal handling, care and the treatment in the study were conducted according to guidelines approved by the Institutional Animal Care and Use Committee (IACUC) following the guidance of the Association for Assessment and Accreditation of Laboratory Animal Care (AAALAC). At the time of routine monitoring, the animals were daily checked for any effects of tumor growth and treatments on normal behavior such as mobility, food and water consumption (by looking only), body weight gain/loss (body weights were measured every two days or twice weekly), eye/hair matting and any other abnormal effects as stated in the protocol. Death and observed clinical signs were recorded on the basis of the numbers of animals within each subset.
The body weight of KPL tumor-bearing mice was monitored regularly as an indirect index of toxicity.

[3] = tested on: Mouse colon cancer CT26 cells; test: CT26 cells with IN10018 and Lurbinectedin: microscope and flow cytometry for CRT / Annexin V (Example 2); type: cell-based; conditions: CT26, 48 hours; IN10018 5 μM, Lurbinectedin 0.00142 μM
Procedure: Mouse colon cancer CT26 cells (Insitute of Biochemistry and Cell Biology) were cultured with RPMI-1640 (Shanghai Basalmedia, classification number: L210KJ, batch number: F210916)+10% FBS (Gibco, classification number: 10099-141c, batch number: 2158737cp) and passaged twice. When the cells were in good condition, the culture solution was placed in a 24-well plate. After the cells were spread for 24 hours, four groups were set up, wherein the first group was a control group, and the culture medium was added; the second group was IN10018 with a concentration of 5 μM; the third group was Lurbinectedin (DC chemicals, classification number: DC12502, batch number: DC1250203) with a concentration of 0.00142 μM; and the fourth group was IN10018 (5 μM) combined with Lurbinectedin (0.00142 μM). The drugs were mixed and the mixture was cultured in a 5% CO2 incubator at 37° C. for 48 hours.
After 48 hours of drug action, the cells were observed under a microscope and photographed, and the photos were kept. Then the cells were collected, subjected to flow analysis, and washed twice with flow buffer (PBS+2% FBS). 0.5 μl of AF647 anti-Calreticulin antibody (abcam, classification number: ab196159, batch number: CR33676773) was added to each well and fully mixed. […] The mixture was cultured at room temperature in the dark for 15 minutes, and then analyzed by flow cytometry.

[4] = tested on: mouse colon cancer CT26-KRAS G12C allograft tumor; test: In vivo pharmacodynamic study, BALB/c mouse subcutaneous allograft tumor model of CT26-KRAS G12C cells (Example 8)
Procedure: Species: mice; Strain: BALB/c mice; Age and weight: 6-8 weeks old, weighing: 18-22 g; Gender: female; Quantity: 49 (excluding remaining mice after grouping); Supplier: LINGCHANG BIOTECH.
Mouse colon cancer CT26-KRAS G12C cells were cultured in monolayer in vitro. The culture conditions were RPMI1640 medium with 10% fetal bovine serum, 1% penicillin/streptomycin/amphotericin B, and 37° C. 5% CO2 incubator. Trypsin-EDTA was used twice a week for routine digestion and passage. When the cell saturation was 80%-90% and the number reached the requirements, the cells were collected, counted and inoculated.
0.1 mL (0.3×10^6 cells) of CT26-KRAS G12C cells were subcutaneously inoculated on the right back of each mouse, and grouping and drug administration began when the average tumor volume reached about 55 mm^3.
The diameter of tumor was measured three times a week with vernier caliper. The formula for calculating the tumor volume is: V=0.5×a×b^2, where a and b represent the long and short diameters of the tumor respectively.
The anti-tumor effect of the compound was evaluated by TGI (%) or relative tumor proliferation rate T/C(%). The relative tumor proliferation rate is T/C(%)=TRTV/CRTV×100% (TRTV: RTV in treatment group; CRTV: RTV in negative control group). According to the results of tumor measurement, the relative tumor volume (RTV) was calculated, and the calculation formula is RTV=Vt/V0, where V0 is the average tumor volume measured at the time of grouping and drug administration (i.e., D0), Vt is the average tumor volume measured at a certain time, and data on the same day were used for TRTV and CRTV.
TGI (%) reflects the tumor growth inhibition rate. TGI (%)=[1−(average tumor volume at the end of administration in a certain treatment group-average tumor volume at the beginning of administration in the treatment group)/(average tumor volume at the end of administration in solvent control group-average tumor volume at the beginning of administration in the solvent control group)]×100%.
Statistical analysis included the mean and standard error (SEM) of tumor volume at each time point in each group (see the specific data in Table 7). Based on the tumor volume data on the 19th day after administration, statistical analysis was performed to evaluate the differences between groups. T-test was used to analyze the comparison between two groups, and one-way ANOVA was used to analyze the comparison between three or more groups. If there was significant difference in F value, Games-Howell method was used for the test. If there was no significant difference in F value, Dunnet (2-sided) method was used for analysis. All data were analyzed by SPSS 17.0. P<0.05 was considered to have significant difference.

[5] = Day 19, D-1553 5 mg/kg PO QD, IN10018 25 mg/kg PO QD, INX0082 10 mg/kg IP BIW

## C#Cc1c(F)ccc2cc(O)cc(-c3ncc4c(N5CC6CCC(C5)N6)nc(OC[C@@]56CCCN5C[C@H](F)C6)nc4c3F)c12 [MRTX1133]
[1]; Day 0, at grouping, mean ± SD
  Weight on Day 0: 19.4 g and 19.4 ± 0.8 g
[1]; Day 16 vs Day 0
  Weight change rate (%): 15.1%
[1]; administration groups: 16th day after group administration, mean ± SD
  Weight on Day 14/16: 22.3 g and 22.3 ± 0.8 g
[1]; number of animals alive on day 0/number alive on day 16
  Animal survival: 6/6
[2]
  tolerability in KPL model: well-tolerated

## COc1cc(C(=O)NC2CCN(C)CC2)c(F)cc1Nc1ncc(C(F)(F)F)c(Oc2cccc3c2C(=O)N(C)C3)n1 [IN10018]
[3]
  cell state under a microscope: good
[4]; Day 0, at grouping, Average ± SEM, n = 7
  Tumor volume (Day 0): 55 ± 3 mm^3
[4]; [5]
  T/C (%) (Day 19): 74.7%
  TGI (%) (Day 19): 23.4%
[4]; Day 19, D-1553 5 mg/kg PO QD, IN10018 25 mg/kg PO QD, INX0082 10 mg/kg IP BIW, Average ± SEM, n = 7
  Tumor volume (Day 19): 1352 mm^3 and 1352 ± 284 mm^3
[4]; Day 19, D-1553 5 mg/kg, IN10018 25 mg/kg, INX0082 10 mg/kg
  anti-tumor effect compared with the solvent control group: no anti-tumor effect
